Measurements as given in ChEMBL document CHEMBL1123576.

Legend:
[1] = target: T1, Opioid receptors; mu/kappa/delta (Homo sapiens) (UniProt P41145+P41143+P35372); assay: The IC50 value of agonist (DADLE) in presence of antagonist (Compound 20 nM) divided by the control […] value with no antagonist in MVD (mouse vas deferens); type: functional; details: Cavia porcellus
[2] = target: T1, Opioid receptors; mu/kappa/delta (Homo sapiens); assay: The IC50 value of agonist (ethylketazocine) in presence of antagonist (Compound 20 nM) divided by the control […] value with no antagonist in GPI (Guinea pig ileum); type: functional, tissue-based; details: Cavia porcellus, target entry is the homologue from another species
[3] = target: T1, Opioid receptors; mu/kappa/delta (Homo sapiens); assay: The IC50 value of agonist (morphine) in presence of antagonist (Compound 20 nM) divided by the control […] value with no antagonist in GPI (Guinea pig ileum); type: functional, tissue-based; details: Cavia porcellus, target entry is the homologue from another species

T1 sequence (P35372 whole entry, looked up): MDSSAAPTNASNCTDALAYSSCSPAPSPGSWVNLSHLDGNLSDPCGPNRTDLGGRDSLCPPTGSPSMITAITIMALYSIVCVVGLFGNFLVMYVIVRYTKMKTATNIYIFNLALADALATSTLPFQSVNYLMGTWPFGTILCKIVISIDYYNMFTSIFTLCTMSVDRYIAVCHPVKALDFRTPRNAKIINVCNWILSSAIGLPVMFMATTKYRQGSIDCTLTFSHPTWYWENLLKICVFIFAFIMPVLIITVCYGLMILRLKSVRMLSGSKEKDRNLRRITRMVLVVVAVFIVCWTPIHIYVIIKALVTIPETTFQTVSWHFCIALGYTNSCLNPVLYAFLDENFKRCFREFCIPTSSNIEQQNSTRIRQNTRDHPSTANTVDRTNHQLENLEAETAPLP
T1 sequence (P41143 whole entry, looked up): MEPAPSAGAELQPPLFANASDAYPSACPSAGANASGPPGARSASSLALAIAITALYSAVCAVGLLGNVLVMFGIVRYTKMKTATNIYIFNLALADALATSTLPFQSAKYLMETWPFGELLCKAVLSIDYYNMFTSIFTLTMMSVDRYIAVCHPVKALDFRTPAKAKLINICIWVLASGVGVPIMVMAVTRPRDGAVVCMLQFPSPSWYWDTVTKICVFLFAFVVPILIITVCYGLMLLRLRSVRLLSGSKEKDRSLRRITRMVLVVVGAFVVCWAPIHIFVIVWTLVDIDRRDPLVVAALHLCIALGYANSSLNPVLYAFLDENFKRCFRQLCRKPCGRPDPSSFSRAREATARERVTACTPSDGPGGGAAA
T1 sequence (P41145 whole entry, looked up): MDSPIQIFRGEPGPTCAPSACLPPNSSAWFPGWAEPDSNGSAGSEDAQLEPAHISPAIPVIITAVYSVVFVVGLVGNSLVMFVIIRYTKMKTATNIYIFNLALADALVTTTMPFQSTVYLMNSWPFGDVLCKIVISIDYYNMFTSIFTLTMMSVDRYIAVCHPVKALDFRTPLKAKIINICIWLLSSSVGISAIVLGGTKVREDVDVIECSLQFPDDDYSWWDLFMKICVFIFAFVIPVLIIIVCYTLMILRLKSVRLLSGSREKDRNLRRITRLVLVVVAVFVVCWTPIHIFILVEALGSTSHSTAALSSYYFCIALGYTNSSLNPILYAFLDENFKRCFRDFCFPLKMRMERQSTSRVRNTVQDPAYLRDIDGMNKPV

SMILES	Ratio [1]	Ratio [2]	Ratio [3]
Oc1ccc2c3c1O[C@@H]1c4[nH]c5c(c4CC4(O)[C@@H](C2)N(CC2CC2)CC[C@]314)CC1(O)[C@H]2Cc3ccc(O)c4c3[C@]1(CCN2CC1CC1)[C@H]5O4 (stereo partly specified)	2	50.4	1.6
Cn1c2c(c3c1[C@@H]1Oc4c(O)ccc5c4[C@@]14CCN(CC1CC1)[C@H](C5)C4(O)C3)CC1(O)[C@H]3Cc4ccc(O)c5c4[C@@]1(CCN3CC1CC1)[C@H]2O5 (stereo partly specified)	4.5	128	5.4
